Test results reported in US20250241840A1, “ORALLY ADMINISTRATED COSMETIC COMPOSITIONS TO TREAT SKIN DRYNESS” (IIAA Limited, priority 2022, published 2025).

What was measured:
[1] = system: human subjects with dry skin and mild to moderate atopic dermatitis; conditions: 200 mg/day GLA orally; measurements at weeks 0, 4, 8, 12 and 16; cited from earlier work
skin of the cheek = assay: Example 1: 28-day oral hyaluronic acid study, hydration, TEWL and wrinkle depth of the skin of the cheek; assay type: in vivo, human; conditions: 200 mg HA orally once daily, 28 days
Method: A cachet containing 200 mg hyaluronic acid (HA) was administered orally, once daily, to 30 subjects for 28 days. The hyaluronic acid administered in this manner consisted of hyaluronic acid molecules having molecular weights in a range of from 50 to 2200 kDa. The hydration, TEWL and wrinkle depth of the skin of the cheek of each subject was measured on the first day of the 28-day study and on the last day of the 28-day study. A Courage+Khazaka Dual 580 Multi Probe Adapter System fitted with a Corneometer™ CM 825 probe (obtainable from Courage & Khazaka Electronic GmbH of Mathias-Brüggen-Straße 91, 50829 Köln, Germany) was used to measure the surface hydration of the subjects' skin. A Courage+Khazaka Dual 580 Multi Probe Adapter System fitted with a Tewameter™ 300 probe was used to measure the TEWL of the subjects' skin. A PRIMOS 3D™ optical skin measurement device was used to measure the depth and width of wrinkles in the subjects' skin. The average percentage change in each of the parameters measured from the first day of the 28-day study to the last day of the 28-day study was calculated.

Compound: CCCCC/C=C\C/C=C\C/C=C\CCCCC(=O)O [GLA, all-cis-6,9,12-octadecatrienoic acid]
- Effect on TEWL [1]: reduce TEWL

Compound: hyaluronic acid
- Skin surface hydration, average percentage change over the course of the 28-day study (skin of the cheek; Corneometer CM 825): +10.6%
- Skin surface hydration, average percentage change over the course of the 28-day study (skin of the cheek; Corneometer CM 825, listed as HA): +10.6%
- Wrinkle depth, average percentage change over the course of the 28-day study (skin of the cheek; PRIMOS 3D): −18.8%
- TEWL, average percentage change over the course of the 28-day study (skin of the cheek; Tewameter 300): −3.9%
